Laboratory results from patent US12343326B2, “Psychoactive medicines and their use for treating psychiatric and neurological conditions and disorders” (Transcend Therapeutics, Inc., priority 2021, dated 2025).
Where two headings read alike, the source gives them in different places.

Columns and labels:
Experiment in all cases: β-arrestin based GPCR screen (PathHunter / GPCRmax), agonist mode
Format in all cases: cell-based
Parameters in all cases: host or cells: PathHunter cell lines
[1] = target: 168 GPCRs (Homo sapiens, UniProt P30988); conditions: Agonist
Chain of 168 GPCRs (Homo sapiens, UniProt P30988) (P30988 25-474): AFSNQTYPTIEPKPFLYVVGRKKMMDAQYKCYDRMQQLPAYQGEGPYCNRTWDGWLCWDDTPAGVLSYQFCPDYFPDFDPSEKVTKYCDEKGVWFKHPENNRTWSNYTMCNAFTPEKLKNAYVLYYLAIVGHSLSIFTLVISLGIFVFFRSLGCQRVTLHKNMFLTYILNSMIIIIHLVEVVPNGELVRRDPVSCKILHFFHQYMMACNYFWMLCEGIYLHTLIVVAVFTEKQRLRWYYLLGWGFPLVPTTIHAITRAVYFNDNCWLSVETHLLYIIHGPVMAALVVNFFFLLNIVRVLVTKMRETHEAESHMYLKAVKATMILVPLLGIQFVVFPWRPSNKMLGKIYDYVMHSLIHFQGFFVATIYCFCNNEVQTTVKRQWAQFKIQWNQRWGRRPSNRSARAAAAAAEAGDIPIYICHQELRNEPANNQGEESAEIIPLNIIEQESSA
Method: (§1) For agonist determination, cells were incubated with sample to induce response. […] Vehicle concentration was 1%.

[2] = target: 168 GPCRs (Homo sapiens, UniProt P34972)
Method: as §1

[3] = target: 168 GPCRs (Homo sapiens, UniProt P55085)
Method: as §1

[4] = target: 168 GPCRs (Homo sapiens, UniProt P32241)
Chain of 168 GPCRs (Homo sapiens, UniProt P32241) (P32241 31-457): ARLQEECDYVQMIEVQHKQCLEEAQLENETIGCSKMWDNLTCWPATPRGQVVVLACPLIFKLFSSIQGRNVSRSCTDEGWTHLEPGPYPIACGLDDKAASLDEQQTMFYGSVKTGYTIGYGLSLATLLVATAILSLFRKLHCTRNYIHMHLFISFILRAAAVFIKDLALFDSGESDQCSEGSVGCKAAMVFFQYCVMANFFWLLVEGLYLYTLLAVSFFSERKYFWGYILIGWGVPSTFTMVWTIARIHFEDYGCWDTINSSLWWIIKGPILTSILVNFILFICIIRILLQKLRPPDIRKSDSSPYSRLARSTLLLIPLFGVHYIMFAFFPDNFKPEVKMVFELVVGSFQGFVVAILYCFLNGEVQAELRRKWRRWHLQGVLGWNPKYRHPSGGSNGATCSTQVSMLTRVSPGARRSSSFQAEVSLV
Method: as §1

[5] = target: 168 GPCRs (Homo sapiens, UniProt O43613)
Chain of 168 GPCRs (Homo sapiens, UniProt O43613) (O43613 whole entry): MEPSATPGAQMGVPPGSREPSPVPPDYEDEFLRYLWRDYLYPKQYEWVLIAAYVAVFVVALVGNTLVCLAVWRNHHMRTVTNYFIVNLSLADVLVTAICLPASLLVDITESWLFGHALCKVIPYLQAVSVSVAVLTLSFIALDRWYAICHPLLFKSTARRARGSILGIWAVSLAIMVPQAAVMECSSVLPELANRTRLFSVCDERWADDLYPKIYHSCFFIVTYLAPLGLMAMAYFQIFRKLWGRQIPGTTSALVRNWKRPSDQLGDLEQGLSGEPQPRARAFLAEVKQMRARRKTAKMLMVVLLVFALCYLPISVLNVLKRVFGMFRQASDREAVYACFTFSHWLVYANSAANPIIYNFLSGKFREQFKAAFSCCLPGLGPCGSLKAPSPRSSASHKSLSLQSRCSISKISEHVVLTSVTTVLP
Method: as §1

[6] = target: 168 GPCRs (Homo sapiens, UniProt P32302)
Chain of 168 GPCRs (Homo sapiens, UniProt P32302) (P32302 whole entry): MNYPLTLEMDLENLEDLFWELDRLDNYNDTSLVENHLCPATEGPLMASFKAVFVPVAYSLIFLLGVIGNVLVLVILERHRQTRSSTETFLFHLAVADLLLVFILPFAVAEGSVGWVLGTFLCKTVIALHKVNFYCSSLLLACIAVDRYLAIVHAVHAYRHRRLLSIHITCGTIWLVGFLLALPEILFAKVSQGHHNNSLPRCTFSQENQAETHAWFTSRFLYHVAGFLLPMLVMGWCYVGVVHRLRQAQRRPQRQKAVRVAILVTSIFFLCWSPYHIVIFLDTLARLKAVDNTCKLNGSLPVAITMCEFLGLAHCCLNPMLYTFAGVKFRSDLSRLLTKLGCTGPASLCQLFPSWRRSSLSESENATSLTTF
Method: as §1

[7] = target: 168 GPCRs (Homo sapiens, UniProt P41597); conditions: CCR2, Agonist
Method: as §1

[8] = target: 168 GPCRs (Homo sapiens, UniProt P25103)
Chain of 168 GPCRs (Homo sapiens, UniProt P25103) (P25103 whole entry): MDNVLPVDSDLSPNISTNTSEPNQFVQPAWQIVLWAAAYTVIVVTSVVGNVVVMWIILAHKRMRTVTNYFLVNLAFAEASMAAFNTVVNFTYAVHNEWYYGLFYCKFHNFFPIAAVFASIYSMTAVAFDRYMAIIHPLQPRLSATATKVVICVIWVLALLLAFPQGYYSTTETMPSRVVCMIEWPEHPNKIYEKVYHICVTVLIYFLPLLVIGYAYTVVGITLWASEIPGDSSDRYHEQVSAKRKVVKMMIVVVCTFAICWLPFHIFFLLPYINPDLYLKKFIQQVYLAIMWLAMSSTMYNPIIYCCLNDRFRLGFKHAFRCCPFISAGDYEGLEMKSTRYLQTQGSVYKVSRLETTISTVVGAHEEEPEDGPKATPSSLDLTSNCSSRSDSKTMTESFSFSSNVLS
Method: as §1

[9] = target: 168 GPCRs (Homo sapiens, UniProt Q96LB1)
Chain of 168 GPCRs (Homo sapiens, UniProt Q96LB1) (Q96LB1 whole entry): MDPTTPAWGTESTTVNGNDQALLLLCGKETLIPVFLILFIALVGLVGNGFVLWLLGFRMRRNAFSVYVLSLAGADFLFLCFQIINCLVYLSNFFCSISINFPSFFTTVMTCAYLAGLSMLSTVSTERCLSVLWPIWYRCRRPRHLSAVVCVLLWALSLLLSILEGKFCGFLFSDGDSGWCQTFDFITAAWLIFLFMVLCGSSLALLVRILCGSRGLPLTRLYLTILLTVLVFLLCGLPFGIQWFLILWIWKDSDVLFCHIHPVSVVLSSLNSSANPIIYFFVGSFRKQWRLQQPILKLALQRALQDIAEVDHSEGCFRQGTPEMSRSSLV
Method: as §1

[10] = target: 168 GPCRs (Homo sapiens, UniProt P18089); conditions: ADRA2B, Agonist
Method: as §1

[11] = target: 168 GPCRs (Homo sapiens, UniProt P35367)
Chain of 168 GPCRs (Homo sapiens, UniProt P35367) (P35367 whole entry): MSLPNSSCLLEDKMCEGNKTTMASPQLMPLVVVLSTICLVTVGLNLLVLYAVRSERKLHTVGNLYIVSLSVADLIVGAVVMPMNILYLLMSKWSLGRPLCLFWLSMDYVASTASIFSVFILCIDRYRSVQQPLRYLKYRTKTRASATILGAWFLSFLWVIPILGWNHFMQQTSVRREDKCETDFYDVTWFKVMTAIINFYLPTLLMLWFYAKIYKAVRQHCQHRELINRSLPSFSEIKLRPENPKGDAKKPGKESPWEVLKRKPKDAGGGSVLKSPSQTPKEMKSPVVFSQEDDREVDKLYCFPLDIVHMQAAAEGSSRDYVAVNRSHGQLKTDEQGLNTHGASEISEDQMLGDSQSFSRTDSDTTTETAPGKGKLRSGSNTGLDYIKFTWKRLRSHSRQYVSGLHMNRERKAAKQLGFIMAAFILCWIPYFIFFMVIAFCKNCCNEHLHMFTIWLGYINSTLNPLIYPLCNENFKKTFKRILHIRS
Method: as §1

[12] = target: 168 GPCRs (Homo sapiens, UniProt P48145)
Method: as §1

[13] = target: 168 GPCRs (Homo sapiens, UniProt Q9UBY5)
Method: as §1

[14] = target: 168 GPCRs (Homo sapiens, UniProt P32246); conditions: CCR1, Agonist
Chain of 168 GPCRs (Homo sapiens, UniProt P32246) (P32246 whole entry): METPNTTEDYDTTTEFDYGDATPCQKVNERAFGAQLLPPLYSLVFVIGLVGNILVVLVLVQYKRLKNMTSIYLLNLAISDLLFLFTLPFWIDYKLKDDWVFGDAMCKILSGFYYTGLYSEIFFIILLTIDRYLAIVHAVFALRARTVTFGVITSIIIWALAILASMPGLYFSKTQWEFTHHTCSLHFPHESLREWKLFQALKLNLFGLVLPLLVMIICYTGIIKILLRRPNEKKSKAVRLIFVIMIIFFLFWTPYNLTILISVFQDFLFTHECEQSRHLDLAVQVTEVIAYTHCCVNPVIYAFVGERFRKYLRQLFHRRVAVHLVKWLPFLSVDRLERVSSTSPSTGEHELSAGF
Method: as §1

[15] = target: 168 GPCRs (Homo sapiens, UniProt P32745)
Method: as §1

[16] = target: 168 GPCRs (Homo sapiens, UniProt P23945); conditions: FSHR
Method: as §1

[17] = target: 168 GPCRs (Homo sapiens, UniProt Q99788); conditions: CMKLR1, Agonist
Method: as §1

[18] = target: 168 GPCRs (Homo sapiens, UniProt Q96G91)
Chain of 168 GPCRs (Homo sapiens, UniProt Q96G91) (Q96G91 whole entry): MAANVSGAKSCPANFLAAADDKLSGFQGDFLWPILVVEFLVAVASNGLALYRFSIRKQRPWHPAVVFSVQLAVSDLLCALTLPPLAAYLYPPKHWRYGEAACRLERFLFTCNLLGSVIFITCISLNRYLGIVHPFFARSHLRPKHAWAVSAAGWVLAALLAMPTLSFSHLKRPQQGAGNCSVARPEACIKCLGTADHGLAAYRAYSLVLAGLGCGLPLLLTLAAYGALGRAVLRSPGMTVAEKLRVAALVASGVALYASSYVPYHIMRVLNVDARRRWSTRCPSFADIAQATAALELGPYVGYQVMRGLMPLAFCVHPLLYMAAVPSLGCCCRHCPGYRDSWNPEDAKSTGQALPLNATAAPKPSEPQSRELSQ
Method: as §1

[19] = target: 168 GPCRs (Homo sapiens, UniProt P21917)
Chain of 168 GPCRs (Homo sapiens, UniProt P21917) (P21917 whole entry): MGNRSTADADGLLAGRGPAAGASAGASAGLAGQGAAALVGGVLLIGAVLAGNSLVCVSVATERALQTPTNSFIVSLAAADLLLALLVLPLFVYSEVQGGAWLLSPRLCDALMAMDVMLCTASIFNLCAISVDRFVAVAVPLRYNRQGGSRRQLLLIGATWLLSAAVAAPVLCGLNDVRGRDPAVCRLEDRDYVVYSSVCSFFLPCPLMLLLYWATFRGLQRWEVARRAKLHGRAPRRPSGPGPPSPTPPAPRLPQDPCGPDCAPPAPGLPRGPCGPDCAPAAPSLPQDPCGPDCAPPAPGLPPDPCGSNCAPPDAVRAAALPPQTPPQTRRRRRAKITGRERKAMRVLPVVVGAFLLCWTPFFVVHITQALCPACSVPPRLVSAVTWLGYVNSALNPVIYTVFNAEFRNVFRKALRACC
Method: as §1

[20] = target: 168 GPCRs (Homo sapiens, UniProt P08588); conditions: ADRB1, Agonist
Chain of 168 GPCRs (Homo sapiens, UniProt P08588) (P08588 whole entry): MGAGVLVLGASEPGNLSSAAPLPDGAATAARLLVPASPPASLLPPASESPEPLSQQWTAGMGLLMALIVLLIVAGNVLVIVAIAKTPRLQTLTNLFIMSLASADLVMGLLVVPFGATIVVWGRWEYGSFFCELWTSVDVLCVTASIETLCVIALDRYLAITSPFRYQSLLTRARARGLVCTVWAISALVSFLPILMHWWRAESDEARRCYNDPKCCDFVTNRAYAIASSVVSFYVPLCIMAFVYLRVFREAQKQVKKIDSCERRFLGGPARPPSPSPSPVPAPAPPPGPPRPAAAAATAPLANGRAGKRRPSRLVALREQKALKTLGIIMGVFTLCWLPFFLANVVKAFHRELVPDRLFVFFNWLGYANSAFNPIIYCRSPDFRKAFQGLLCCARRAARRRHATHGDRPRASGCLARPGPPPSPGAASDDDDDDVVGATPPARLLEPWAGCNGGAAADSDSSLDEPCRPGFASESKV
Method: as §1

[21] = target: 168 GPCRs (Homo sapiens, UniProt P28336); conditions: NMBR
Method: as §1

[22] = target: 168 GPCRs (Homo sapiens, UniProt P34998)
Chain of 168 GPCRs (Homo sapiens, UniProt P34998) (P34998 24-415): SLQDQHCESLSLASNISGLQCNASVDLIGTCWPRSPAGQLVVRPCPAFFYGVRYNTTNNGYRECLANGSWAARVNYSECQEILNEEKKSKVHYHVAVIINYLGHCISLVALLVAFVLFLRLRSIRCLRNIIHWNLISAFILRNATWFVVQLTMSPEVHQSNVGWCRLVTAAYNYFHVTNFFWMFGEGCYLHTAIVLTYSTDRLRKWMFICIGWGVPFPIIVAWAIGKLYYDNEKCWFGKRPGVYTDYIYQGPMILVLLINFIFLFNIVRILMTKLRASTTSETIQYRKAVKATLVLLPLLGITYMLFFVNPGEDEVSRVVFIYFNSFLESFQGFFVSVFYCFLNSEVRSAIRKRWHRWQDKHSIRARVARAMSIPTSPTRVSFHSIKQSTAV
Method: as §1

[23] = CALCR-RAMP2, read-out: % Activity

## CNC(C)C(=O)c1ccc2c(c1)OCO2 (stereo not drawn) [methylone, 3,4-methylenedioxy-N-methylcathinone]
[1]; [23]
  activity at 1 µM: 0.9%
  activity at 10 µM: 1.6%
[1]; CALCR-RAMP3
  activity at 1 µM: 7.9%
  activity at 10 µM: 7.1%
[1]; CALCR, read-out: % Activity
  activity at 1 µM: -0.3%
  activity at 10 µM: 0.2%
[2]; CNR2, Agonist mode, 10 uM
  activity at 10 µM: 3.2%
[2]; CNR2, Agonist, 1 uM
  activity at 1 µM: 7%
[3]; F2RL1, Agonist mode, 10 uM
  activity at 10 µM: 3.8%
[3]; F2RL1, Agonist, 1 uM
  activity at 1 µM: -0.6%
[4]; VIPR1, Agonist mode, 10 uM
  activity at 10 µM: 0.6%
[4]; VIPR1, Agonist, 1 uM
  activity at 1 µM: 0.3%
[5]; HCRTR1, Agonist mode, 10 uM
  activity at 10 µM: -0.1%
[5]; HCRTR1, Agonist, 1 uM
  activity at 1 µM: -0.1%
[6]; CXCR5, Agonist mode, 10 uM
  activity at 10 µM: 1.4%
[6]; CXCR5, Agonist, 1 uM
  activity at 1 µM: 2.5%
[7]; 1 uM
  activity at 1 µM: -0.4%
[7]; 10 uM
  activity at 10 µM: -0.5%
[8]; TACR1, Agonist mode, 10 uM
  activity at 10 µM: -4.4%
[8]; TACR1, Agonist, 1 uM
  activity at 1 µM: -3.9%
[9]; MRGPRX2, Agonist mode, 10 uM
  activity at 10 µM: 0.73%
[9]; MRGPRX2, Agonist, 1 uM
  activity at 1 µM: 1.4%
[10]; 1 uM
  activity at 1 µM: -1%
[10]; 10 uM
  activity at 10 µM: 1.3%
[11]; HRH1, Agonist mode, 10 uM
  activity at 10 µM: 2.5%
[11]; HRH1, Agonist, 1 uM
  activity at 1 µM: 3%
[12]; NPBWR1, Agonist mode, 10 uM
  activity at 10 µM: -1.9%
[12]; NPBWR1, Agonist, 1 uM
  activity at 1 µM: 1.6%
[13]; EDG7, Agonist mode, 10 uM
  activity at 10 µM: 1.1%
[13]; EDG7, Agonist, 1 uM
  activity at 1 µM: 3%
[14]; 1 uM
  activity at 1 µM: -2.6%
[14]; 10 uM
  activity at 10 µM: 3.6%
[15]; SSTR3, Agonist mode, 10 uM
  activity at 10 µM: 0.3%
[15]; SSTR3, Agonist, 1 uM
  activity at 1 µM: 0.7%
[16]; Agonist mode, 10 uM
  activity at 10 µM: 2.2%
[16]; Agonist, 1 uM
  activity at 1 µM: -1%
[17]; 1 uM
  activity at 1 µM: -0.2%
[17]; 10 uM
  activity at 10 µM: -0.3%
[18]; P2RY11, Agonist mode, 10 uM
  activity at 10 µM: -0.3%
[18]; P2RY11, Agonist, 1 uM
  activity at 1 µM: 0.5%
[19]; DRD4, Agonist mode, 10 uM
  activity at 10 µM: 9.4%
[19]; DRD4, Agonist, 1 uM
  activity at 1 µM: -8%
[20]; 1 uM
  activity at 1 µM: -1.7%
[20]; 10 uM
  activity at 10 µM: -1.4%
[21]; Agonist mode, 10 uM
  activity at 10 µM: 1.2%
[21]; Agonist, 1 uM
  activity at 1 µM: 1.1%
[22]; CRHR1, Agonist mode, 10 uM
  activity at 10 µM: 1.1%
[22]; CRHR1, Agonist, 1 uM
  activity at 1 µM: 1.4%
